For orientation: melting point means the temperature, or range, at which the solid turns liquid. What is called Emax is the greatest response seen or fitted, relative to the assay's reference. What is called EC50 is the concentration that produces a half-maximal response.

The values that follow come from patent US8816090B2, “Benzisoxazole derivatives” (Pfizer Inc., priority 2005, dated 2014).

In data set [1] the target is T1, Human 5-HT4(d) (Homo sapiens, UniProt Q13639).
T1 construct: expressed in transfected cells
The experiment in a line: Agonist-induced cAMP elevation in human 5-HT4(d) transfected HEK293 cells. The settings on record: for Emax: HEK293, cAMP production normalized to the amount produced by 1,000 nM serotonin; for EC50: cAMP elevation (HTRF), human 5-HT4(d) transfected HEK293 cells. In kind it is cell-based. The protocol:
Human 5-HT4(d) transfected HEK293 cells were established in-house. The cells were grown at 37° C. and 5% CO2 in DMEM supplemented with 10% FCS, 20 mM HEPES (pH 7.4), 200 μg/ml hygromycin B (Gibco), 100 units/ml penicillin and 100 μg/ml streptomycin.
The cells were grown to 60-80% confluence. On the previous day before treatment with compounds dialyzed FCS (Gibco) was substituted for normal and the cells were incubated overnight.
Compounds were prepared in 96-well plates (12.5 μl/well). The cells were harvested with PBS/1 mM EDTA, centrifuged and washed with PBS. At the beginning of the assay, cell pellet was resuspended in DMEM supplemented with 20 mM HEPES, 10 μM pargyline (Sigma) and 1 mM 3-isobutyl-1-methylxanthine (Sigma) at the concentration of 1.6×10^5 cells/ml and left for 15 min at room temperature. The reaction was initiated by addition of the cells into plates (12.5 μl/well). After incubation for 15 min at room temperature, 1% Triton X-100 was added to stop the reaction (25 μl/well) and the plates were left for 30 minutes at room temperature. Homogenous time-resolved fluorescence-based cAMP (Schering) detection was made according to the manufacturer's instruction. ARVOsx multilabel counter (Wallac) was used to measure HTRF (excitation 320 nm, emission 665 nm/620 nm, delay time 50 μs, window time 400 μs).
Data was analyzed based on the ratio of fluorescence intensity of each well at 620 nm and 665 nm followed by cAMP quantification using cAMP standard curve. Enhancement of cAMP production elicited by each compound was normalized to the amount of cAMP produced by 1,000 nM serotonin (Sigma).
(In general: Cyclic AMP is a second messenger, typically raised through Gs and lowered through Gi signalling.)

T1 sequence (Q13639 1-360 isoform Q13639-3): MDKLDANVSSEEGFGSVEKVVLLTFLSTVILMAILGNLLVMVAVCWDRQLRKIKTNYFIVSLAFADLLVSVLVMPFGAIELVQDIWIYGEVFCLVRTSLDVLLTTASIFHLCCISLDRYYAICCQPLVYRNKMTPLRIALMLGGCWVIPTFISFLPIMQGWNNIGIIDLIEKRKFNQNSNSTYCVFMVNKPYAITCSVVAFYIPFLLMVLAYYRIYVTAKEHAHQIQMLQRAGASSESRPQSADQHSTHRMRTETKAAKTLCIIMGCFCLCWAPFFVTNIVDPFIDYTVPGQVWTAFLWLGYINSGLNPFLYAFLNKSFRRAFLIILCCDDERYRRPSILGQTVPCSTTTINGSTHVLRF

For `O=C(O)C1(CN2CCC(COc3noc4cccc(OC5CCCC5)c34)CC2)CCOCC1` [Example 24, 4-{[4-({[4-(Cyclopentyloxy)-1,2-benzisoxazol-3-yl]oxy}methyl)piperidin-1-yl]methyl}tetrahydro-2H-pyran-4-carboxylic acid], the melting point is 177.7 °C. Besides, in data set [1], the Emax worked out at 52% and the response was half-maximal at 1.4 nM (EC50).
In the same order, the values of `O=C(O)C1(CCN2CCC(COc3noc4cccc(OCC5CCCC5)c34)CC2)CCOCC1` [Example 23, 4-{2-[4-({[4-(Cyclopentylmethoxy)-1,2-benzisoxazol-3-yl]oxy}methyl)piperidin-1-yl]ethyl}tetrahydro-2H-pyran-4-carboxylic acid] are 212.5 °C, 77% and 22 nM.
For the compound `O=C(O)C1(CN2CCC(COc3noc4cccc(O[C@H]5CC[C@@H](O)CC5)c34)CC2)CCCC1` [Example 45, 1-({4-[({4-[(cis-4-Hydroxycyclohexyl)oxy]-1,2-benzisoxazol-3-yl}oxy)methyl]piperidin-1-yl}methyl)-cyclopentanecarboxylic acid], the melting point was 189.6 °C. In data set [1], this compound registered an Emax of 42% and an EC50 of 3.8 nM.
In the same order, the values of `OC1(COc2cccc3onc(OCC4CCN(CC5(O)CCOCC5)CC4)c23)CCCC1` [Example 31, 4-({4-[{(4-[(1-Hydroxycyclopentyl)methoxy]-1,2-benzisoxazol-3-yl}oxy)methyl]piperidin-1-yl}-methyl)tetrahydro-2H-pyran-4-ol] are 136.5 °C, 31% and 27 nM.
On the same counts, the results for `O=C(O)C1(CN2CCC(CCOc3noc4cccc(OCC(F)(F)F)c34)CC2)CCOCC1` [Example 7, 4-{[4-(2-{[4-(2,2,2-Trifluoroethoxy)-1,2-benzisoxazol-3-yl]oxy}ethyl)piperidin-1-yl]methyl}tetrahydro-2H-pyran-4-carboxylic acid] are 176.6 °C, 35% and 48 nM.
In the same order, the values of `O=C(O)C1(CN2CCC(COc3noc4cccc(OCC5CCCC5)c34)CC2)CCOCC1` [Example 22, 4-{[4-({[4-(Cyclopentylmethoxy)-1,2-benzisoxazol-3-yl]oxy}methyl)piperidin-1-yl]methyl}tetrahydro-2H-pyran-4-carboxylic acid] are 185.6 °C, 73% and 4.4 nM.
In the case of `O=C(O)C1(CN2CCC(COc3noc4cccc(OCC5CCC5)c34)CC2)CCCC1` [Example 17, 1-{[4-({[4-(Cyclobutylmethoxy)-1,2-benzisoxazol-3-yl]oxy}methyl)piperidin-1-yl]methyl}cyclo-pentanecarboxylic acid], the melting point is 173.8 °C. In data set [1], this compound registered an Emax of 41% and an EC50 of 3.6 nM.
`O=C(O)C1(CCN2CCC(COc3noc4cccc(OCC(F)(F)F)c34)CC2)CCOCC1` [Example 5, 4-{2-[4-({[4-(2,2,2-Trifluoroethoxy)-1,2-benzisoxazol-3-yl]oxy}methyl)piperidin-1-yl]ethyl}tetrahydro-2H-pyran-4-carboxylic acid] had a melting point of 220.5 °C. For the same compound, in data set [1], the Emax is 70% and the EC50 worked out at 2.7 nM.
